# Laboratory results: US12691121B2, “Treatment of pulmonary arterial hypertension” (IMPERIAL COLLEGE INNOVATIONS LIMITED, priority 2020, dated 2026)
# Read-outs that look alike come from different tables or passages of the source.
# What was measured:
# [1] = tested on: human pulmonary microvascular endothelial cells (HPMEC); experiment: DMOG-induced apoptosis in HPMEC; type: cell-based
# From the text: The effects of various TSPO ligands on HPMEC under DMOG (a permeable prolyl-4-hydroxylase inhibitor which upregulates hypoxia-inducible factor and causes apoptosis) stimulation were investigated.
# [2] = tested on: Human pulmonary artery smooth muscle cells (PASMCs); experiment: PDGF- and hypoxia-stimulated proliferation of PASMCs; type: cell-based
# MCT rat [3] = experiment: MCT rat PH model: pulmonary arterial pressure, RVSP, RV hypertrophy, systemic blood pressure; type: in vivo
# Experimental: Modulation of TSPO by XBD-173 was assessed in MCT rats. […] Heart and lung glucose metabolism were also assessed by FDG-PET imaging. […] This attenuation was dose-dependent manner. […] (data not shown).
# TSPO = target: T1, TSPO (Rattus norvegicus, UniProt P16257); experiment: 11C-PBR28 PET imaging, ligand specificity tested by XBD-173 pre-treatment; type: in vivo; conditions: rats treated with XBD-173 prior to PET imaging
# T1 construct: from tissue; host or cells: lungs and right ventricle of living control and monocrotaline-treated rats (in vivo PET)
# Experimental: PET imaging was performed in healthy control and MCT 4 weeks rats (60 mg/kg subcutaneous injection). The uptake of TSPO PET tracer, ^11C-PBR28, was measured in the lungs and RV.
# MCT rat [4] = experiment: MCT rat PH model: MRI of RV structure and function; type: in vivo
# MCT rat [5] = experiment: MCT rat PH model: pulmonary vascular remodelling and CD68+ macrophage infiltration (histology); type: in vivo
# Experimental: Modulation of TSPO by XBD-173 was assessed in MCT rats. […] Heart and lung glucose metabolism were also assessed by FDG-PET imaging.
# HPAEC [6] = experiment: ROS production in TNF-α stimulated HPAEC (CellROX Green); type: cell-based, human; conditions: 10 nM and 50 nM; P<0.001; levels similar to TNF-α untreated control
# Experimental: (§1) Mitochondrial membrane potential was determined using 20 nM Tetramethylrhodamine, Ethyl Ester, Perchlorate (TMRE; Life technologies, T669). ROS production was detected using 5 uM CellROX Green (Life technologies, C10444). 1 ug/mL Hoechst 33342 (Life technologies, H1399) was added for nucleus staining. Images were obtained with a Zeiss Axio Observer inverted widefield microscope. […] In addition, XBD173 signifantly (P<0.001) increased the mitochondrial membrane potentials following TNF-α stimulation, with the mitochondrial membrane potentials with XBD173 treatment recovering to similar levels to those seen for the TNF-α untreated control.
# human TSPO [7] = target: human TSPO (Homo sapiens, UniProt P30536, T147A); conditions: human subjects with high-affinity binding of their TSPO; read-out: mean Kd, high affinity binders; cited from earlier work
# human TSPO [8] = target: human TSPO (Homo sapiens, UniProt P30536); conditions: cited from earlier work
# HPAECs = experiment: TNF-α stimulated HPAEC activation: E-selectin ELISA and cytokine array; type: cell-based, human; conditions: 10 nM and 50 nM
# Experimental: HPAECs were pre-treated with XBD173 (10 nM and 50 nM) for 24 hours before TNF-α (10 ng/ml) stimulation for 8 hours. At the end of the experiment, cell numbers were counted and cell culture supernatants collected (n=4 per group, control, TNF-α, TNF-α with XBD 10 nM and 50 nM treatments) for cytokine assay using the proteome profiler human cytokine array kit (R&D systems, ARY005B) and E-selectin ELISA assay. […] Further, XBD173 observably attenuated release of multiple cytokines and chemokines (CXCL-10, RANTES, IL-6, IL-21, IL-18, CXCL11, G-CSF and CXCL12) from HPAEC in response to TNF-α stimulation.
# HPAEC [9] = experiment: Mitochondrial membrane potential in TNF-α stimulated HPAEC (TMRE); type: cell-based, human; conditions: 10 nM and 50 nM; P<0.001; recovering to levels similar to TNF-α untreated control
# Experimental: as §1
# MCT rat [10] = experiment: MCT rat PH model: RV immunofluorescence (WGA cardiomyocyte size, CD31 micro-vessels); type: in vivo
# From the text: Bar charts illustrating the quantitative data from immunofluorescence staining. ***p<0.001.
# Immunofluorescence staining was used to examine the RV structural changes. The cardiomyocyte size was quantified by wheat germ agglutinin (WGA) and the number of micro-vessels by CD31 at RV insertion point.
# SuHx rat = SuHx rat model: PAP, RV hypertrophy, systolic blood pressure; type: in vivo; conditions: SuHx rats, 2 mg/kg twice a day for two weeks
# [11] = 2 mg/Kg once and twice a day, 2-4 weeks
# Chain of human TSPO (Homo sapiens, UniProt P30536, T147A) (P30536 2-169 T147A): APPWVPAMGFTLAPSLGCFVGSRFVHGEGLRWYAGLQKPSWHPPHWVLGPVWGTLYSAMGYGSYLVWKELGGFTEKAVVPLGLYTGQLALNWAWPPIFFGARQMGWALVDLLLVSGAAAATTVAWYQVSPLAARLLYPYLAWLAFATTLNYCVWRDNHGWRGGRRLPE
smiles,measurement,setting,value
CCNC1=Nc2ccc(Cl)cc2C(C)(c2ccccc2)O1 (stereo not drawn) [Etifoxine],DMOG-induced apoptotic effects in HPMECs,"[1]; FIG. 12F, 10 uM",reversed
CC(=O)N(Cc1ccccc1O[11CH3])c1cnccc1Oc1ccccc1 [PBR28],DMOG-induced apoptotic effects in HPMECs,"[1]; FIG. 12D, 5 nM",reversed
CCC(C)N(C)C(=O)c1cc2ccccc2c(-c2ccccc2Cl)n1 (stereo not drawn) [PK95111],DMOG-induced apoptotic effects in HPMECs,"[1]; FIG. 12B, 3 nM, 30 nM and 300 nM",reversed
CN1C(=O)CN=C(c2ccc(Cl)cc2)c2cc(Cl)ccc21 [Ro 5-4864],DMOG-induced apoptotic effects in HPMECs,"[1]; FIG. 12E, 10 nM",reversed
CCOC(=O)C1=C[C@]2(CC)CCCN3CCc4c(n1c1ccccc41)[C@@H]32 [Vinpocetine],DMOG-induced apoptotic effects in HPMECs,"[1]; FIG. 12C, 800 nM",reversed
"CCN(Cc1ccccc1)C(=O)Cn1c(=O)n(C)c2cnc(-c3ccccc3)nc21 [XBD-173, N-Ethyl-7,8-dihydro-7-methyl-8-oxo-2-phenyl-N-(phenylmethyl)-9H-purine-9-acetamide]",PDGF-stimulated proliferation of PASMCs,[2]; PDGF stimulus,attenuated
same,hypoxia-stimulated proliferation of PASMCs,[2]; hypoxia stimulus (O2=2%),attenuated
same,RV/body weight (RV/BW),MCT rat [3]; [11],attenuated
same,RVSP (RV catheterisation),MCT rat [3]; [11],attenuated
same,"RVH (RV/LV+sp ratio, dissected heart tissue)","MCT rat [3]; 2 mg/Kg once and twice a day, 2-4 weeks, vs 57.30 untreated MCT",40.30
same,pulmonary arterial pressure (PAP),"MCT rat [3]; 2 mg/Kg once and twice a day, treatment from 2 weeks to 4 weeks, vs 45.37 untreated MCT",27.23 mmHg
same,systemic blood pressure,MCT rat [3]; data not shown,no significant effect
same,PBR28 lung signals (11C-PBR28 PET),TSPO,blocked
same,RV cardiac index (RVCI),MCT rat [4],restoring
same,"RV dilation (RV end diastolic volume index, RVEDVI)",MCT rat [4],significantly reduced
same,RV ejection fraction (RVEF),MCT rat [4],restoring
same,RV hypertrophy as RV mass index (RVMI),MCT rat [4],reduced
same,RV hypertrophy as ventricular mass index (VMI),MCT rat [4],reduced
same,ventricular-vascular coupling (Ees/Ea),MCT rat [4],restoring
same,"inflammatory cell (CD68, macrophage) infiltration",MCT rat [5]; MCT rat lung,attenuated
same,pulmonary vascular remodelling (% of muscularised vessels),"MCT rat [5]; MCT rat, 2 mg/Kg once and twice a day, 2-4 weeks, vs 75.24 untreated MCT",53.57%
same,ROS production following TNF-α stimulation,HPAEC [6],reduced
same,Kd,human TSPO [7],~2.5 nM
same,Kd,"human TSPO [8]; human subjects with both high- and low-affinity binding sites, read-out: mean Kd, mixed affinity binders",~11 nM
same,Kd,"human TSPO [8]; human subjects with low-affinity binding of their TSPO, read-out: mean Kd, low affinity binders",~30 nM
same,activation of HPAECs by TNF-α (E-selectin expression),"HPAECs; 24 hours pre-treatment, TNF-α 10 ng/ml 8 hours, P<0.05",reduced
same,CXCL11 release,HPAECs; TNF-α stimulation,attenuated
same,CXCL12 release,HPAECs; TNF-α stimulation,attenuated
same,CXCL-10 release,HPAECs; TNF-α stimulation,attenuated
same,G-CSF release,HPAECs; TNF-α stimulation,attenuated
same,IL-6 release,HPAECs; TNF-α stimulation,attenuated
same,IL-18 release,HPAECs; TNF-α stimulation,attenuated
same,IL-21 release,HPAECs; TNF-α stimulation,attenuated
same,RANTES release,HPAECs; TNF-α stimulation,attenuated
same,mitochondrial membrane potentials following TNF-α stimulation,HPAEC [9],increased
same,DMOG-induced apoptotic effects in HPMECs,"[1]; Example 4, FIG. 11",reversed
same,DMOG-induced apoptotic effects in HPMECs,"[1]; FIG. 12A, 10 nM, 50 nM and 100 nM",reversed
same,"RV cardiomyocyte hypertrophy (myocyte size, WGA)",MCT rat [10]; MCT rat RV,attenuated
same,RV capillary density (CD31 micro-vessels),MCT rat [10]; MCT rat RV insertion point,increased
same,RV hypertrophy,SuHx rat,significant decrease
same,pulmonary arterial pressure (PAP),SuHx rat,significant decrease
same,systemic blood pressure,SuHx rat,no significant effect
